Test results as given in US20070275923A1, “CATIONIC PEPTIDES FOR siRNA [sequence] [sequence]” (NASTECH PHARMACEUTICAL COMPANY INC., priority 2006, published 2007).
Residues, ends and D or L forms follow the SMILES beside them.

How the values were obtained:
[1] = tested on: Mouse tail fibroblast (MTF) cells; experiment: siRNA cell-uptake and MFI measured by FACS after peptide-mediated transfection of labeled siRNA; type: cell-based; details: for % Cell-Uptake: % of total cells with intracellular labeled siRNA; for MFI: relative value
Protocol: SiRNA cell uptake was measured by FACS.
For the instant example, cell-uptake, mean fluorescent intensity (MFI) and cell viability was measured for each peptide. siRNA cell-uptake was measured by the presence of intracellular labeled siRNA. The cell-uptake assay determined the percentage of cells that contain the labeled siRNA. Mean Fluorescence Intensity (MFI) was used to determine the relative mean quantity of labeled siRNA that entered the cells.
A non-transfection, siRNA alone, control was also performed.
Within Table 3, “ND” means no data.

[2] = in vitro; details: C57BL/6J, mouse, mouse tail fibroblast (MTF) cells
Protocol: Mouse tail fibroblast (MTF) cells were derived from the tails of C57BL/6J mice. Tails were removed, immersed in 70% ethanol and then cut into small sections with a razor blade. The sections were washed three times with PBS and then incubated in a shaker at 37° C. with 0.5 mg/mL collagenase, 100 units/mL penicillin and 100 μg/mL streptomycin to disrupt tissue. Tail sections were then cultured in complete media (Dulbecco's Modified […] Medium with 20% FBS, 1 mM sodium pyruvate, nonessential amino acids and 100 units/mL penicillin and 100 μg/mL streptomycin) until cells were established. Cells were cultured at 37° C., 5% CO2 in complete media as outlined above.
Cells were be plated per well in a microtiter plate the day before transfection in complete media. The siRNA was be labeled, for example with a FAM, Alexa488, Alexa647 or Cy-5 conjugate. The cationic polymer peptide and siRNA were mixed in the microtiter plate complex with cells previously with OptiMEM. 7-AAD was added to each transfection to measure cell viability. Cells were transfected for three hours at 37° C., 5% CO2. The transfection mixture was removed and the cells were washed with TE buffer for about 10 minutes at 37° C., 5% CO2. Transfected cells were transferred to a V bottom plate and centrifuged. The TE buffer was removed and the transfected cells were resuspended in fluorescence activated cell sorting (FACS) buffer.
A non-transfection, siRNA alone, control was also performed. The peptide PN183 served herein as a positive cell-uptake control.
Cell-uptake is expressed as a percentage of the total cells with intracellular labeled siRNA. Cell Viability is also expressed as a percentage where 100% represents 100% viability. The MFI value is a relative value with a higher MFI value indicating a greater amount of labeled siRNA entered the cell. Within Table 3, “ND” means no data.

[3] = peptide concentration 1 μM, 200 nM labeled siRNA
[4] = peptide concentration 1 μM, 200 nM labeled siRNA, higher = more labeled siRNA entered the cell
[5] = peptide concentration 10 μM, 200 nM labeled siRNA
[6] = peptide concentration 10 μM, 200 nM labeled siRNA, higher = more labeled siRNA entered the cell
[7] = peptide concentration 100 μM, 200 nM labeled siRNA
[8] = peptide concentration 100 μM, 200 nM labeled siRNA, higher = more labeled siRNA entered the cell

Compound | % Cell-Uptake [1, 3] | MFI [1, 4] | % Cell-Uptake [1, 5] | MFI [1, 6] | % Cell-Uptake [1, 7] | MFI [1, 8] | viability at 3 h, 1 µM [2] | viability at 3 h, 10 µM [2] | viability at 3 h, 100 µM [2] | percent cell-uptake ([1]; concentration not given) | MFI ([1]; concentration not given) | intracellular delivery of siRNA (verbal conclusion from cell-uptake and cell viability) ([1]; conclusion drawn from Table 3)
CC[C@H](C)[C@H](NC(=O)[C@H](CCCCN)NC(=O)[C@@H](NC(=O)[C@H](CCC(N)=O)NC(=O)[C@H](CCCNC(=N)N)NC(=O)[C@H](CS)NC(=O)[C@@H](NC(=O)[C@H](CO)NC(=O)[C@H](CCCNC(=N)N)NC(=O)[C@H](Cc1c[nH]cn1)NC(=O)[C@H](Cc1c[nH]cn1)NC(=O)[C@H](Cc1c[nH]cn1)NC(=O)[C@H](Cc1c[nH]cn1)NC(=O)[C@H](Cc1c[nH]cn1)NC(=O)[C@@H](N)Cc1c[nH]cn1)C(C)C)[C@@H](C)CC)C(=O)N[C@@H](CS)C(=O)N[C@@H](CCCNC(=N)N)C(=O)N[C@@H](CCCNC(=N)N)C(=O)N[C@@H](CCCNC(=N)N)C(=O)NCC(=O)NCC(=O)N[C@@H](CS)C(=O)N[C@@H](Cc1ccc(O)cc1)C(=O)N[C@@H](Cc1ccc(O)cc1)C(=O)N[C@@H](CCCCN)C(=O)N[C@@H](CS)C(=O)N[C@H](C(=O)N[C@@H](CC(N)=O)C(=O)N[C@@H](CCCNC(=N)N)C(=O)N1CCC[C@H]1C(=O)N[C@@H](Cc1ccc(O)cc1)C(N)=O)[C@@H](C)O [PN951] (H-HHHHHHRSVCRQIKICRRRGGCYYKCTNRPY-NH2) | 31.8% | 4.02 | 80.1% | 14.3 | 45.7% | 9.19 | 97.2% | 99.1% | 97.9% |  |  | 
H-KETWWETWWTEWSQPGRKKRRQRRRPPQ-NH2 [PN183, reference compound] | 9.3% | 3.61 | 47.4% | 3.77 | 58.9% | 10.5 | 96% | 96.8% | 76.7% | approximately 59% | ~11 | 
H-KHKHKHKHKHKHKHKHKHKH-NH2 [PN938, NH2-(Lys-His)10-amide] | 0.6% |  | 0.5% |  | 5.9% |  | 97.9% | 98.6% | 98.8% |  |  | 
H-KHKHKHKHKHKHKHKHKHKHKHKHKHKHKH-NH2 [PN935, NH2-(Lys-His)15-amide] | 20.3% | 1.94 | 36.1% | 2.2 | 24.6% | 2.16 | 98.1% | 97.3% | 96.6% |  |  | effective intracellular delivery of siRNA without negatively impacting cell viability
H-KKKKKKKKKK-NH2 [PN932, NH2-(Lys)10-amide] | 0.4% |  | 1% |  | 1% |  | 97.3% | 96.7% | 98.4% |  |  | 
